Data from patent US11179663B1, “Polyurethane-based materials” (Aviro LLC, priority 2021, dated 2021).

Tests used:
[1] = tested on: COVID-19; assay: coronavirus deactivation test after attachment to the surfaces, qPCR for genes indicative of COVID-19 activity; conditions: FIG. 2; compared among the antiviral coatings
[2] = tested on: COVID-19; assay: coronavirus capture (attachment) test on coated surfaces, crystal violet stain read by spectrophotometer; conditions: FIG. 1; virus capture by coated surfaces

Row | SMILES | potential to deactivate captured virus [1] | SARS-Cov2 capture [2]
1 | CCCCCCCCCCCCCCCCCC[N+](C)(C)CCC[Si](OC)(OC)OC.[Cl-] [DMS, Dimethyloctadecyl[3-(trimethoxysilyl)propyl]ammonium chloride] | highest potential to deactivate | 
2 | CCCCCCCCCCCCCCCC[n+]1ccccc1 [CPC, Cetyl pyridinium chloride] |  | roughly 95%
